Results as given in ChEMBL document CHEMBL1131884, “Dicationic 2-fluorenonylcarbapenems: potent anti-MRS agents with improved solubility and pharmacokinetic properties” (Bioorg Med Chem Lett, 1999).
In brackets after ≈: the same amount, converted by molar mass.

How the values were obtained:
Streptococcus pyogenes [1] = assay: Antibacterial activity against Streptococcus pyogenes; format: functional
[2] = Renal clearance evaluated in Rhesus monkeys at the dose of 10 mg/kg by iv bolus injection; format: ADME, organism-based, Kidney; parameters: dose 10 mg/kg, route intravenous; conditions: cercopithecidae, in vivo, read-out: Renal clearance
Enterococcus faecalis [3] = assay: Antibacterial activity against Enterococcus faecalis; format: functional
Enterococcus faecalis [4] = assay: Antibacterial activity against vancomycin-resistant Enterococcus faecalis strain; format: functional
Streptococcus pneumoniae = assay: Antibacterial activity against penicillin-resistant Streptococcus pneumoniae; format: functional
Enterococcus faecium = assay: Antibacterial activity against vancomycin-resistant Enterococcal faecium strain; format: functional
Bacteria = assay: Antibacterial activity against Gram negative bacteria; format: functional
Staphylococcus aureus [5] = assay: Antibacterial activity against MSSA (Methicillin-sensitive Staphylococcus aureus); format: functional
[6] = Glomerular Filtration Rate(GFR) evaluated in Rhesus monkeys at the dose of 10 mg/kg by iv bolus injection; format: ADME, organism-based; parameters: dose 10 mg/kg, route intravenous; conditions: cercopithecidae, in vivo
Mus musculus [7] = assay: In vivo antibacterial activity against MSSA MB 2985 strain at the dose ~4 *10e7 cfu in brain heart broth along with antibiotic by sc administration at 0 hour in mice; format: functional
Staphylococcus sp. = assay: Antibacterial activity against methicillin-resistant coagulase negative Staphylococci (MRCNS); format: functional
Mus musculus [8] = assay: In vivo antibacterial activity against MSSA MB 2985 strain at the dose ~4 *10e7 cfu in brain heart broth along with antibiotic by administration at 0 hour in mice; format: functional
[9] = Half life evaluated in Rhesus monkeys at the dose of 10 mg/kg by iv bolus injection; format: ADME, organism-based; parameters: dose 10 mg/kg, route intravenous; conditions: cercopithecidae, in vivo, read-out: Beta t1/2 (converted)
Staphylococcus aureus [10] = assay: Antibacterial activity against methicillin-resistant Staphylococcus aureus (MRSA); format: functional
[11] = AUC (area under curve) evaluated in Rhesus monkeys at the dose of 10 mg/kg by iv bolus injection; format: ADME, organism-based, Plasma; parameters: dose 10 mg/kg, route intravenous; conditions: cercopithecidae
Mus musculus [12] = assay: In vivo antibacterial activity against MRSA 76 virginia strain at the dose ~1 *10e7 cfu in 5 percent hog gastric mucin along with antibiotic by sc administration at 0 and +4 hrs in mice; format: functional
[13] = Plasma clearance evaluated in Rhesus monkeys at the dose of 10 mg/kg by iv bolus injection; format: ADME, organism-based; parameters: dose 10 mg/kg, route intravenous; conditions: cercopithecidae
[14] = molecular target: T1, Dipeptidase 1 (Sus scrofa) (UniProt P22412); assay: Susceptibility to mammalian dehydropeptidas, DHP-1(Porcine)
T1 sequence (whole entry): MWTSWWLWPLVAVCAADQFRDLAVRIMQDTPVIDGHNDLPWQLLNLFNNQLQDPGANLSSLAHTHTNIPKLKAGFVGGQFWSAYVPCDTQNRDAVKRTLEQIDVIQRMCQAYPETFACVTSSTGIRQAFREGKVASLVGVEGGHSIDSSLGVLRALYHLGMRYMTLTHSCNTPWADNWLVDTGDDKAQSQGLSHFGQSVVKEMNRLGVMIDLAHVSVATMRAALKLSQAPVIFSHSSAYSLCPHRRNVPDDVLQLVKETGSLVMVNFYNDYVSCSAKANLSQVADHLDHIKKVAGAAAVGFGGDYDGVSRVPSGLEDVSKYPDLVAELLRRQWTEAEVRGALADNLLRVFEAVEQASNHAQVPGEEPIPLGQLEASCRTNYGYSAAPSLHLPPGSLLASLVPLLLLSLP

MecA = molecular target: T2, MecA (Staphylococcus aureus, UniProt Q7DHH4); assay: Binding affinity against PBP2a receptor by competition analysis with [3H]benzylpenicillin using cell membrane fractions from the MRSA COL strain.
T2 sequence (Q7DHH4 whole entry): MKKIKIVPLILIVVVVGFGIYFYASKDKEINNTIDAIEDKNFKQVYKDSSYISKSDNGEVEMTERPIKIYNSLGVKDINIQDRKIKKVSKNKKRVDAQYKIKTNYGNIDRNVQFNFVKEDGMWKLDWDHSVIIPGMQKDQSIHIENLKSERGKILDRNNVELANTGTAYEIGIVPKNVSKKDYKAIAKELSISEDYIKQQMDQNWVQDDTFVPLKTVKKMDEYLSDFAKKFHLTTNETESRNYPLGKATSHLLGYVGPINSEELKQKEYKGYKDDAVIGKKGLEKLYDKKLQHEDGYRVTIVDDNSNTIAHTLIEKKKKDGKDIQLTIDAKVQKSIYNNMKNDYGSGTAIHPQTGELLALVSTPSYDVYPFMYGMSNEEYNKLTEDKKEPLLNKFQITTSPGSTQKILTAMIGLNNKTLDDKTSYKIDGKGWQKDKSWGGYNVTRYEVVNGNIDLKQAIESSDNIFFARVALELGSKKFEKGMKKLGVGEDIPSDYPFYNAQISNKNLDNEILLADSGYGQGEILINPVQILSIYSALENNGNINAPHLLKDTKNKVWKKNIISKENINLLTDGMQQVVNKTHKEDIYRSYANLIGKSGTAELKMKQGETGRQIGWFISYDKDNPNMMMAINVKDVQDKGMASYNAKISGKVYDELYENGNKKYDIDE

Streptococcus pyogenes [15] = assay: Antibacterial activity against Streptococcus pyogenes
[16] = molecular target: T1, Dipeptidase 1 (Sus scrofa); assay: Susceptibility to mammalian dehydropeptidase, DHP-1(Porcine)
[17] = Renal clearance compared to Cilastatin evaluated in Rhesus monkeys at the dose of 10 mg/kg by iv bolus injection; format: ADME, organism-based, Kidney; parameters: dose 10 mg/kg, route intravenous; conditions: cercopithecidae, in vivo, read-out: Renal clearance
[18] = Plasma clearance compared to Cilastatin evaluated in Rhesus monkeys at the dose of 10 mg/kg by iv bolus injection; format: ADME, organism-based; parameters: dose 10 mg/kg, route intravenous; conditions: cercopithecidae
[19] = Half life compared to Cilastatin evaluated in Rhesus monkeys at the dose of 10 mg/kg by iv bolus injection; format: ADME, organism-based; parameters: dose 10 mg/kg, route intravenous; conditions: cercopithecidae, in vivo, read-out: Beta t1/2 (converted)
[20] = Glomerular Filtration Rate(GFR)of the compound compared to Cilastatin evaluated in Rhesus monkeys at the dose of 10 mg/kg by iv bolus injection; format: ADME, organism-based; parameters: dose 10 mg/kg, route intravenous; conditions: cercopithecidae, in vivo
[21] = AUC (area under curve) compared to Cilastatin evaluated in Rhesus monkeys at the dose of 10 mg/kg by iv bolus injection; format: ADME, organism-based; parameters: dose 10 mg/kg, route intravenous; conditions: cercopithecidae, plasma
[22] = Urinary recovery compared to Cilastatin evaluated in Rhesus monkeys at the dose of 10 mg/kg by iv bolus injection; format: ADME, organism-based, Urine; parameters: dose 10 mg/kg, route intravenous; conditions: cercopithecidae, in vivo

Row | Structure (SMILES) | MIC (Streptococcus pyogenes [1]) | CL renal [2] | MIC (Enterococcus faecalis [3]) | MIC (Enterococcus faecalis [4]) | MIC (Streptococcus pneumoniae) | MIC (Enterococcus faecium) | MIC (Bacteria) | MIC (Staphylococcus aureus [5]) | GFR [6] | ED50 (Mus musculus [7]) | MIC50 (Staphylococcus sp.) | MIC90 (Staphylococcus sp.) | MIC (Mus musculus [8]) | half-life [9] | MIC50 (Staphylococcus aureus [10]) | MIC90 (Staphylococcus aureus [10]) | ED50 (Mus musculus [12]) | MIC (Mus musculus [12]) | clearance [13] | IC50 (MecA) | further results
1 | C[C@@H](O)[C@H]1C(=O)N2C(C(=O)[O-])=C(c3ccc4c(c3)-c3ccc(C[N+]56CC[N+](CC(N)=O)(CC5)CC6)cc3C4=O)[C@H](C)[C@H]12.[Cl-] | < 0.031 µg/mL | 2.72 mL/min/kg | 0.5 µg/mL | 8 µg/mL | 0.24 µg/mL | 8 µg/mL | 3.6 µg/mL | 0.03 µg/mL | 3.48 mL/min/kg | 0.021 mg/kg | 4 µg/mL | 8 µg/mL | 0.031 µg/mL | 1.35 h | 4 µg/mL | 4 µg/mL | 1 mg kg-1 dose-1 | 2 µg/mL | 2.95 mL/min/kg | 1320 nM | AUC ([11]; plasma, read-out: AUC): 56400 ng·h/mL; Rate of hydrolysis [14]: 0.021
2 | CN[C@H](CC(C)C)C(=O)N[C@H]1C(=O)N[C@@H](CC(N)=O)C(=O)N[C@H]2C(=O)N[C@H]3C(=O)N[C@H](C(=O)N[C@H](C(=O)O)c4cc(O)cc(O)c4-c4cc3ccc4O)[C@H](O)c3ccc(c(Cl)c3)Oc3cc2cc(c3O[C@@H]2O[C@H](CO)[C@@H](O)[C@H](O)[C@H]2O[C@H]2C[C@](C)(N)[C@H](O)[C@H](C)O2)Oc2ccc(cc2Cl)[C@H]1O [VANCOMYCIN] | 0.25 µg/mL (≈ 0.173 µM) | – | – | 32 µg/mL (≈ 22.1 µM) | 0.25 µg/mL (≈ 0.173 µM) | > 64 µg/mL | > 64 µg/mL | – | – | 3.7 mg/kg | 4 µg/mL (≈ 2.76 µM) | 4 µg/mL (≈ 2.76 µM) | 1 µg/mL (≈ 0.69 µM) | – | 1 µg/mL (≈ 0.69 µM) | 2 µg/mL (≈ 1.38 µM) | 2.33 mg kg-1 dose-1 | 1 µg/mL (≈ 0.69 µM) | – | – | –
3 | C[C@@H](O)[C@H]1C(=O)N2C(C(=O)O)=C(SCCNC=N)C[C@H]12 [IMIPENEM ANHYDROUS] | < 0.031 µg/mL | – | 2 µg/mL (≈ 6.68 µM) | 8 µg/mL (≈ 26.7 µM) | 0.35 µg/mL (≈ 1.17 µM) | > 64 µg/mL | 0.45 µg/mL (≈ 1.5 µM) | 0.03 µg/mL (≈ 0.1 µM) | – | 0.021 mg/kg | 128 µg/mL (≈ 428 µM) | 256 µg/mL (≈ 855 µM) | 0.008 µg/mL (≈ 0.0267 µM) | – | 64 µg/mL (≈ 214 µM) | 128 µg/mL (≈ 428 µM) | 15.7 mg kg-1 dose-1 | 64 µg/mL (≈ 214 µM) | – | – | Rate of hydrolysis [14]: 1
4 | C[C@@H](O)[C@H]1C(=O)N2C(C(=O)[O-])=C(c3ccc4c(c3)-c3ccc(C[n+]5ccn(C)c5)cc3C4=O)C[C@H]12 | < 0.031 µg/mL | 2.34 mL/min/kg | 0.125 µg/mL (≈ 0.266 µM) | 1 µg/mL (≈ 2.13 µM) | < 0.03 µg/mL | 4 µg/mL (≈ 8.52 µM) | 1.37 µg/mL (≈ 2.92 µM) | 0.03 µg/mL (≈ 0.0639 µM) | 3.19 mL/min/kg | 0.034 mg/kg | 2 µg/mL (≈ 4.26 µM) | 4 µg/mL (≈ 8.52 µM) | 0.008 µg/mL (≈ 0.017 µM) | 1.17 h | 1 µg/mL (≈ 2.13 µM) | 2 µg/mL (≈ 4.26 µM) | 0.92 mg kg-1 dose-1 | 1 µg/mL (≈ 2.13 µM) | 5.56 mL/min/kg | 1060 nM | AUC ([11]; plasma, read-out: AUC): 30400 ng·h/mL; Rate of hydrolysis [14]: 0.078
5 | C[C@@H](O)[C@H]1C(=O)N2C(C(=O)[O-])=C(c3ccc4c(c3)-c3ccc(C[N+]56CC[N+](CC(N)=O)(CC5)CC6)cc3C4=O)C[C@H]12.[Cl-] | – | 1.88 mL/min/kg | 0.125 µg/mL | 2 µg/mL | 0.09 µg/mL | 16 µg/mL | 1.05 µg/mL | 0.03 µg/mL | 2.96 mL/min/kg | 0.042 mg/kg | 2 µg/mL | 2 µg/mL | 0.004 µg/mL | 0.91 h | 1 µg/mL | 4 µg/mL | 0.5 mg kg-1 dose-1 | 1 µg/mL | 4.74 mL/min/kg | 573 nM | MIC (Streptococcus pyogenes [15]): < 0.031 µg/mL; AUC ([11]; in vivo): 35.14 µg/mL; Rate of hydrolysis [16]: 0.055
6 | C[C@@H](O)[C@H]1C(=O)N2C(C(=O)O)=C(SCCN=CN)C[C@H]12 [IMIPENEM ANHYDROUS] | – | – | – | – | – | – | – | – | – | – | – | – | – | – | – | – | – | – | – | 334000 nM | CL renal [17]: 5.44 mL/min/kg; clearance [18]: 6.72 mL/min/kg; half-life [19]: 0.6 h; GFR [20]: 2.98 mL/min/kg; AUC [21]: 24800 ng·h/mL; Urinary recovery [22]: 82
